US11318149B2, “Compositions and methods for inhibiting biofilm-forming bacteria” (Board of Trustees of Michigan State University, priority 2018, dated 2022)
≈ marks a conversion by molar mass, not a printed value. Like-named read-outs stand apart in the source and are kept apart here.

Assays:
Assay type in all cases: cell-based, Pseudomonas aeruginosa
24-hr old PAO1 biofilms = experiment: Biofilm susceptibility testing (MBEC assay, BacTiter-Glo); conditions: for onset of action: time killing curves, antibiotic alone or with oxyclozanide (100 μM); for time required to show antimicrobial activity: 24-hr biofilms, melittin 100 μM, tobramycin 400 μM; for EC50: Pseudomonas aeruginosa, read-out: half effective concentration 50 (EC50) of tobramycin; for number of viable cells within the biofilms (BacTiter-Glo), mean / fold reduction of viable cells versus untreated biofilm / percent of P. aeruginosa cells in the biofilm killed / percent of cells within 24-hr biofilms killed: 6-hrs; for fold reduction of viable cells versus untreated biofilm / percent of P. aeruginosa cells in the biofilm killed: oxyclozanide 100 μM, tobramycin 500 μM, gentamicin/streptomycin/tetracycline 100 μM, alone or in combination; for time killing curve result at 2 and 4 hrs, single agent: oxyclozanide or tobramycin alone
Protocol: (§1) To measure antimicrobial susceptibility of biofilms, the MBEC™ assay was used (Innovotech) as previously described. This assay consists of a lid with 96 polystyrene pegs used to grow biofilms. Briefly, an overnight culture was washed and diluted to an OD600 of 0.001 and seeded into a MBEC™ plate. To grow biofilms, the plate was then incubated for 24-hrs at 35° C. in a humidified chamber with agitation at 150 RPM. After 24-hrs, the lid was then transferred to a 96-well plate filled with DPBS and washed for 5-mins to remove non-adherent cells. The lid was transferred to the 96-well treatment plate and incubated for the indicated time points at 35° C. without agitation. After the incubation, the MBEC™ lid was washed and transferred to a black 96-well ViewPlate (PerkinElmer) filled with BacTiter-Glo™ to enumerate cell viability and then luminescence was measured using a EnVison Multilabel Plate Reader (PerkenElmer, Waltham, Mass.). Percent killing was calculated as:
[formula] Dose response curves were performed in the same manner. Crystal Violet Staining
Time killing curves were performed by growing 24-hr old biofilms on MBEC™ plates as previously described. Briefly, 100 μM of oxyclozanide and 500 μM of tobramycin were used to test for synergy at high concentrations of tobramycin, mirroring what is done clinically. The peg-lid was briefly washed in DPBS to remove non-adherent cells and transferred to a treatment plate and incubated at 35° C. for 8-hrs. At 0, 2, 4, 6, and 8-hrs pegs were collected and BacTiter-Glo™ was used to determine cell viability.

[1] = system: P. aeruginosa planktonically grown cells; experiment: microbe, parasite or virus in culture
Protocol: To measure antimicrobial susceptibility of planktonic cells, MICs were determined using the broth microdilution technique, as described previously. Briefly, microdilutions were made in a 96-well plate in 1% MHB diluted in Dulbecco's Phosphate Buffered Saline with magnesium and calcium (DPBS, Sigma-Aldrich). Cells were combined with the serial dilutions in the 96-well plate at a concentration of ˜[…] CFU/mL in 10% MHB. The plates were then incubated for 24-hrs at 35° C. in a humidified chamber with agitation at 150 RPM. MIC breakpoints were chosen as the minimum concentration in which no turbidity greater than background was measured (absorbance at 595 nm), using a SpectraMax M5 microplate spectrophotometer system (Molecular Devices Sunnyvale, Calif.

P. aeruginosa biofilms = experiment: Crystal violet staining of biofilm biomass (biofilm dispersal); conditions: for effect on biofilm biomass / dispersal (crystal violet): six hour exposure, 50 μM-400 μM, alone and in combination
Protocol: To study biofilm dispersal under static conditions, crystal violet staining was performed as previously described. Briefly, 24-hr old biofilms formed on MBEC™ plates, as described above, were stained with crystal violet after a 6-hr incubation with oxyclozanide and tobramycin.
One possible mechanism by which oxyclozanide enhances tobramycin activity is by inducing biofilm dispersal. To test this, the ability of oxyclozanide and tobramycin to disperse P. aeruginosa biofilms was examined using crystal violet staining of the biofilm biomass after six hour exposure to dilutions of oxyclozanide or tobramycin alone and in combination from 50 μM-400 μM (FIG. 6).

[2] = system: P. aeruginosa cells within biofilms; experiment: TO-PRO-3 staining for permeabilization of biofilm cells; conditions: melittin 100 μM, 2 hours
Protocol: 24-hr old biofilms were treated with melittin (100 μM), or tobramycin (400 μM), alone and in combination for 2 hours. […] Percent values indicate the average relative abundance of events within each gate normalized to the total number of events analyzed, excluding artifacts, aggregates and debris. The experiment was performed two separate times in duplicate. The results are percent averages plus the SEM. A one-way ANOVA followed by Bonferroni's multiple comparison post-hoc test was used to determine statistical significance between tobramycin versus melittin, tobramycin versus the combination, and melittin versus the combination(*, p<0.05).

[3] = system: P. aeruginosa clinical isolates from CF patients grown in biofilms; experiment: Biofilm susceptibility of CF clinical isolates (MBEC, BacTiter-Glo); conditions: 100 μM oxyclozanide; 6-hrs
Protocol: 24-hr old biofilms grown on MBEC plates were treated with oxyclozanide (100 μM), or tobramycin (500 μM), alone and in combination for 6-hrs. The number of viable cells within the biofilms were quantified by BacTiter-Glo™. The assay was performed three times in triplicate. The results represent means plus the SEM. A one-way ANOVA followed by Bonferroni's multiple comparison post-hoc test was used to determine statistical significance compared to tobramycin alone (*, p<0.05, NS, not significant).
as §1, with “The lid was transferred to the 96-well treatment plate and incubated for the indicated time points at 35° C. without agitation.” left out, “as: […]” for “as:”

[4] = Pseudomonas aeruginosa, read-out: Minimum Inhibitory Concentrations (MIC), +Melittin
[5] = Pseudomonas aeruginosa, read-out: Minimum Inhibitory Concentrations (MIC), Alone

Row | Compound | onset of action (24-hr old PAO1 biofilms) [h] | Minimum Inhibitory Concentrations (MIC), Alone [1] [µM] | time required to show antimicrobial activity (24-hr old PAO1 biofilms) [h] | fold reduction of viable cells versus untreated biofilm (24-hr old PAO1 biofilms) | percent of P. aeruginosa cells in the biofilm killed (24-hr old PAO1 biofilms) [%] | time killing curve result at 2 and 4 hrs, single agent (24-hr old PAO1 biofilms) | MIC [1, 4] [µM] | MIC [1, 5] [µM] | effect on biofilm biomass / dispersal (crystal violet) (P. aeruginosa biofilms) | also measured
1 | gentamicin | 4 | 6.25 to 12.5 | – | – | – | – | – | – | – | MIC ([1]; +Melittin, read-out: Minimum Inhibitory Concentrations (MIC), +Melittin): 12.5 µM
2 | NC[C@H]1O[C@H](O[C@H]2[C@H](O)[C@@H](O[C@H]3O[C@H](CO)[C@@H](O)[C@H](N)[C@H]3O)[C@H](N)C[C@@H]2N)[C@H](N)C[C@@H]1O [tobramycin] | 6 | – | 6 | about 2 fold | 56 | increase in cell number | 3.12 to 6.25 (≈ 1.46 to 2.92 µg/mL) | 3.12 to 6.25 (≈ 1.46 to 2.92 µg/mL) | significantly reduced biofilm biomass | EC50 (24-hr old PAO1 biofilms; PAO1, in combination with melittin): 16 µM; EC50 (24-hr old PAO1 biofilms; PAO1, tobramycin alone): 46 µM; number of viable cells within the biofilms (BacTiter-Glo), mean (24-hr old PAO1 biofilms; Tobramycin 50 μM, Melittin 0 μM): 1.82E5; number of viable cells within the biofilms (BacTiter-Glo), mean (24-hr old PAO1 biofilms; Tobramycin 100 μM, Melittin 0 μM): 1.91E5; number of viable cells within the biofilms (BacTiter-Glo), mean (24-hr old PAO1 biofilms; Tobramycin 200 μM, Melittin 0 μM): 2.27E5
3 | CC[C@H](C)[C@H](NC(=O)CN)C(=O)NCC(=O)N[C@@H](C)C(=O)N[C@H](C(=O)N[C@@H](CC(C)C)C(=O)N[C@@H](CCCCN)C(=O)N[C@H](C(=O)N[C@@H](CC(C)C)C(=O)N[C@H](C(=O)N[C@H](C(=O)NCC(=O)N[C@@H](CC(C)C)C(=O)N1CCC[C@H]1C(=O)N[C@@H](C)C(=O)N[C@@H](CC(C)C)C(=O)N[C@H](C(=O)N[C@@H](CO)C(=O)N[C@@H](Cc1c[nH]c2ccccc12)C(=O)N[C@H](C(=O)N[C@@H](CCCCN)C(=O)N[C@@H](CCCNC(=N)N)C(=O)N[C@@H](CCCCN)C(=O)N[C@@H](CCCNC(=N)N)C(=O)N[C@@H](CCC(N)=O)C(=O)N[C@@H](CCC(N)=O)C(N)=O)[C@@H](C)CC)[C@@H](C)CC)[C@@H](C)O)[C@@H](C)O)C(C)C)C(C)C [melittin] | – | 62.5 to 200 | 2 | – | – | – | – | – | – | number of viable cells within the biofilms (BacTiter-Glo), mean (24-hr old PAO1 biofilms; Tobramycin 0 μM, Melittin 12.5 μM): 5.18E5; number of viable cells within the biofilms (BacTiter-Glo), mean (24-hr old PAO1 biofilms; Tobramycin 0 μM, Melittin 25 μM): 4.22E5; number of viable cells within the biofilms (BacTiter-Glo), mean (24-hr old PAO1 biofilms; Tobramycin 0 μM, Melittin 50 μM): 2.87E5; number of viable cells within the biofilms (BacTiter-Glo), mean (24-hr old PAO1 biofilms; Tobramycin 0 μM, Melittin 100 μM): 2.51E4; biofilm dispersal (crystal violet) (P. aeruginosa biofilms; 24-hr biofilms treated for 6-hrs): significant biofilm dispersal; permeabilization of cells (TO-PRO-3) [2]: causes permeabilization
4 | O=C(Nc1cc(Cl)cc(Cl)c1O)c1c(O)c(Cl)cc(Cl)c1Cl [oxyclozanide] | – | – | – | about 2 fold | 44 | no significant killing | – | – | did not impact biofilm biomass | percent of cells within 24-hr biofilms killed (24-hr old PAO1 biofilms; 400 μM of each agent): ~80%; percent of cells within 24-hr biofilms killed (24-hr old PAO1 biofilms; oxyclozanide alone between 25 and 200 μM): 20-40%; effect on the minimum inhibitory concentration of tobramycin, gentamicin, streptomycin, or tetracycline ([1]; planktonically grown cells): no effect; sensitivity of six clinical isolates to treatment alone [3]: modest sensitivity
5 | [H]/N=C(/N)N[C@H]1[C@H](O)[C@@H](O)[C@H](O[C@@H]2O[C@@H](C)[C@](O)(C=O)[C@H]2O[C@@H]2O[C@@H](CO)[C@H](O)[C@@H](O)[C@@H]2NC)[C@@H](N/C(N)=N\[H])[C@@H]1O [streptomycin] | – | – | – | – | – | – | 25 to 50 (≈ 14.5 to 29.1 µg/mL) | 25 to 50 (≈ 14.5 to 29.1 µg/mL) | – | delay in killing activity against 24-hr old biofilms (24-hr old PAO1 biofilms; antibiotic alone, 100 μM): did not show a delay
